Laboratory results: patent US12233161B1, “Lipids and lipid nanoparticle formulations” (LONGUIDE BIOPHARMA CORPORATION, priority 2024, dated 2025)
Where “and” joins values, the source holds several entries; their conditions need not be identical. Equal values may be shown once.

Experiments:
mice [1] = assay: In vivo delivery of FLuc-mRNA lipid nanoparticles in mice, in vivo imaging (IVIS)
In short: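 Mice (n=3) received about 75 μL FLuc-mRNA LNP per mouse intramuscularly (rectus femoris), intravenously (tail vein), intraperitoneally or subcutaneously (back). After injection, D-luciferin (200 μL, 15 mg/mL) was given i.p. 10-15 min before IVIS imaging.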

[2] = Particle size and PDI of nucleic acid lipid nanoparticle preparations by dynamic light scattering; assay type: physicochemical
In short: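 Size read by DLS after diluting the LNP preparation (approx. 0.04 mg/mL mRNA) in ultrapure water with gentle pipette mixing. The same sample, recovered and diluted further with water, was then used for zeta potential measurement.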

[3] = Potential characterization of nucleic acid lipid nanoparticle preparations; assay type: physicochemical
In short: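 Nanoparticles (about 0.04 mg/mL mRNA) were diluted in ultrapure water for Malvern ZEN3700 measurement: 20 μL into 780 μL for potential alone, or 27.5 μL into 200 μL for DLS particle size followed by addition of 600 μL water for potential.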

mice [4] = assay: In vivo delivery of lipid nanoparticles co-loaded with FLuc-mRNA and Cy5-siRNA in mice; conditions: IV, 1.00:10.00:33.00:56.00, N/P 30
Method: Lipid nanoparticles loaded with nucleic acid drugs were prepared according to step 2, replacing FLuc-mRNA with a mixture of FLuc-mRNA (Hongene Biotech Corporation, Shanghai) and Cy5-siRNA. Each mouse was administered a dose of 3 μg FLuc-mRNA and 3 μg Cy5-siRNA. After a certain period of time, in vivo imaging (PerkinElmer, IVIS Lumina III) was performed. For the detection of FLuc-mRNA expression, 200 μL of a 15 mg/mL D-Luciferin working solution was injected intraperitoneally ten to fifteen minutes before imaging, followed by imaging analysis using the in vivo imaging system. 9. Investigation of the Delivery Efficacy of Lipid Nanoparticle Formulations for Compounds in Mice

[5] = DMG-PEG2000:DSPC:Chol:Lipid 1.00:4.00:65.00:30.00, N/P 6, IV, liver
[6] = DMG-PEG2000:DSPC:Chol:Lipid 1.00:4.00:65.00:30.00, N/P 6, IV, lung
[7] = DMG-PEG2000:DSPC:Chol:Lipid 1.00:4.00:65.00:30.00, N/P 6, IV, spleen
[8] = DMG-PEG2000:DSPC:Chol:Lipid 5.00:10.00:29.00:56.00, N/P 42, IV, liver
[9] = DMG-PEG2000:DSPC:Chol:Lipid 5.00:10.00:29.00:56.00, N/P 42, IV, lung
[10] = DMG-PEG2000:DSPC:Chol:Lipid 5.00:10.00:29.00:56.00, N/P 42, IV, spleen
[11] = mRNA LNP, 1.00:10.00:33.00:56.00, N/P 42, IV, liver
[12] = mRNA LNP, 1.00:10.00:33.00:56.00, N/P 42, IV, lung
[13] = mRNA LNP, 1.00:10.00:33.00:56.00, N/P 42, IV, spleen
[14] = DMG-PEG2000:DSPC:Chol:Lipid 1.00:4.00:65.00:30.00, N/P 6, mRNA LNP
[15] = DMG-PEG2000:DSPC:Chol:Lipid 2.18:17.32:60.50:20.00, N/P 30, mRNA LNP
[16] = DMG-PEG2000:DSPC:Chol:Lipid 5.00:10.00:29.00:56.00, N/P 42, mRNA LNP
[17] = DMG-PEG2000:DSPC:Chol:compound 1.00:10.00:33.00:56.00, N/P 42
[18] = DMG-PEG2000:DSPC:Chol:compound 1.00:10.00:33.00:56.00, N/P 48
[19] = LNP co-loaded with Fluc-mRNA and Cy5-siRNA, DMG-PEG2k:DSPC:Chol:L0263 1.00:10.00:33.00:56.00, N/P 30
[20] = mRNA LNP, 1.00:10.00:33.00:56.00, N/P 42

CCCCCCCCCCCCNC(=O)C(O)CN(CCCN(C)CCCN(CC(O)C(=O)NCCCCCCCCCCCC)CC(O)C(=O)NCCCCCCCCCCCC)CC(O)C(=O)NCCCCCCCCCCCC (centres unmarked) [Compound L0263]
IVIS (mice [1]; DMG-PEG2000:DSPC:Chol:Lipid 1.00:4.00:65.00:30.00, N/P 6, IV, body): 1.07 × 10^7 | % of organ targeting (mice [1]; [5]): 10.71% | IVIS (mice [1]; [5]): 1.34 × 10^6 | % of organ targeting (mice [1]; [6]): 12.46% | IVIS (mice [1]; [6]): 1.55 × 10^6 | % of organ targeting (mice [1]; [7]): 76.83% | IVIS (mice [1]; [7]): 9.58 × 10^6 | IVIS (mice [1]; DMG-PEG2000:DSPC:Chol:Lipid 2.18:17.32:60.50:20.00, N/P 30, IM, whole body scan): 6.05 × 10^6 | IVIS (mice [1]; DMG-PEG2000:DSPC:Chol:Lipid 5.00:10.00:29.00:56.00, N/P 42, IV, body): 1.83 × 10^8 | % of organ targeting (mice [1]; [8]): 2.01% | IVIS (mice [1]; [8]): 4.24 × 10^6 | % of organ targeting (mice [1]; [9]): 90.12% | IVIS (mice [1]; [9]): 1.90 × 10^8 | % of organ targeting (mice [1]; [10]): 7.87% | IVIS (mice [1]; [10]): 1.66 × 10^7 | IVIS (mice [1]; IP, organ not given, DMG-PEG2000:DSPC:Chol:compound 1.00:10.00:33.00:56.00, N/P 42, Fluc-mRNA): 5.82E+09 | IVIS (mice [1]; IV, body, DMG-PEG2000:DSPC:Chol:compound 1.00:10.00:33.00:56.00, N/P 48, Fluc-mRNA): 7.08E+08 | % of organ targeting (mice [1]; IV, liver, DMG-PEG2000:DSPC:Chol:compound 1.00:10.00:33.00:56.00, N/P 48): 0.44% | IVIS (mice [1]; IV, liver, DMG-PEG2000:DSPC:Chol:compound 1.00:10.00:33.00:56.00, N/P 48, Fluc-mRNA): 1.71E+07 | % of organ targeting (mice [1]; IV, lung, DMG-PEG2000:DSPC:Chol:compound 1.00:10.00:33.00:56.00, N/P 48): 98.92% | IVIS (mice [1]; IV, lung, DMG-PEG2000:DSPC:Chol:compound 1.00:10.00:33.00:56.00, N/P 48, Fluc-mRNA): 3.83E+09 | % of organ targeting (mice [1]; IV, spleen, DMG-PEG2000:DSPC:Chol:compound 1.00:10.00:33.00:56.00, N/P 48): 0.63% | IVIS (mice [1]; IV, spleen, DMG-PEG2000:DSPC:Chol:compound 1.00:10.00:33.00:56.00, N/P 48, Fluc-mRNA): 2.46E+07 | in vivo delivery efficiency as compared to the benchmark compound SM102 (mice [1]; certain formulations, Table 2): superior in vivo delivery efficiency | tissue-targeting specificity (lung vs spleen depending on molar percentage of compound) (mice [1]; certain formulations, Table 2): strong tissue-targeting specificity | % of organ targeting (mice [1]; [11]): 0.46% | IVIS (mice [1]; [11]): 8.07E+06 | % of organ targeting (mice [1]; [12]): 99.18% | IVIS (mice [1]; [12]): 1.74E+09 | % of organ targeting (mice [1]; [13]): 0.36% | IVIS (mice [1]; [13]): 6.30E+06 | IVIS (mice [1]; mRNA LNP, DMG-PEG2000:DSPC:Chol:lipid 1.00:10.00:33.00:56.00, N/P 42, IV, body): 2.93E+08 | PDI [2, 14]: 0.12 ± 0.01 | Particle size [2, 14]: 110.83 ± 1.05 nm | PDI [2, 15]: 0.11 ± 0.02 | Particle size [2, 15]: 126.23 ± 1.69 nm | PDI [2, 16]: 0.12 ± 0.01 | Particle size [2, 16]: 126.40 ± 2.08 nm | PDI [2, 17]: 0.13 and 0.15 | Particle size (nm) [2, 17]: 86.62 nm and 139.47 nm and 118.13 nm | PDI [2, 18]: 0.13 | Particle size (nm) [2, 18]: 118.33 nm | PDI [2, 19]: 0.14 | Particle size (nm) [2, 19]: 95.5 nm | PDI [2, 20]: 0.14 | Particle size (nm) [2, 20]: 97.48 nm | Zeta potential (mV) [3, 17]: 11.54 mV | Zeta potential (mV) [3, 18]: 16.93 mV | Zeta potential (mV) [3, 19]: 12.77 mV | Zeta potential (mV) [3, 20]: 11.97 mV | % of organ targeting (Fluc) (mice [4]; 10 min, Heart): 0.2% | Fluc IVIS/g Organ (mice [4]; 10 min, Heart): 9.76E+05 | % of organ targeting (Fluc) (mice [4]; 10 min, Kidney): 0.1% | Fluc IVIS/g Organ (mice [4]; 10 min, Kidney): 3.33E+05 | % of organ targeting (Fluc) (mice [4]; 10 min, Liver): 0.1% | Fluc IVIS/g Organ (mice [4]; 10 min, Liver): 5.97E+05 | % of organ targeting (Fluc) (mice [4]; 10 min, Lung): 97.9% | Fluc IVIS/g Organ (mice [4]; 10 min, Lung): 4.98E+08 | % of organ targeting (Fluc) (mice [4]; 10 min, Spleen): 1.7% | Fluc IVIS/g Organ (mice [4]; 10 min, Spleen): 8.58E+06 | % of organ targeting (Fluc) (mice [4]; 20 min, Heart): 0.2% | Fluc IVIS/g Organ (mice [4]; 20 min, Heart): 3.16E+06 | % of organ targeting (Fluc) (mice [4]; 20 min, Kidney): 0.0% | Fluc IVIS/g Organ (mice [4]; 20 min, Kidney): 4.37E+05 | % of organ targeting (Fluc) (mice [4]; 20 min, Liver): 0.1% | Fluc IVIS/g Organ (mice [4]; 20 min, Liver): 1.27E+06 | % of organ targeting (Fluc) (mice [4]; 20 min, Lung): 99.2% | Fluc IVIS/g Organ (mice [4]; 20 min, Lung): 1.98E+09 | % of organ targeting (Fluc) (mice [4]; 20 min, Spleen): 0.6% | Fluc IVIS/g Organ (mice [4]; 20 min, Spleen): 1.13E+07 | % of organ targeting (Fluc) (mice [4]; 1 h, Heart): 0.2% | Fluc IVIS/g Organ (mice [4]; 1 h, Heart): 6.32E+06 | % of organ targeting (Fluc) (mice [4]; 1 h, Kidney): 0.0% | Fluc IVIS/g Organ (mice [4]; 1 h, Kidney): 1.67E+06 | % of organ targeting (Fluc) (mice [4]; 1 h, Liver): 0.1% | Fluc IVIS/g Organ (mice [4]; 1 h, Liver): 3.51E+06 | % of organ targeting (Fluc) (mice [4]; 1 h, Lung): 98.1% | Fluc IVIS/g Organ (mice [4]; 1 h, Lung): 3.70E+09 | % of organ targeting (Fluc) (mice [4]; 1 h, Spleen): 1.6% | Fluc IVIS/g Organ (mice [4]; 1 h, Spleen): 5.86E+07
